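Test compounds were applied to cells in 96-well plates for 48 hours at 5 doses. GI50 is the concentration that inhibits growth by half.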 Active and inactive are the calls of the source. Cut-off read from the data, not from the text of the source: active = GI50 up to about 1.1 µM and inactive = higher. Non-standard residues stand in square brackets, D forms with d. Residues, ends and D or L forms follow the SMILES beside them. ξ: configuration not given here. *: point of attachment. X18 = COC1=CC(=O)N(C(=O)C(O*)C(C)C)C1Cc1ccccc1; ξNMe2Val = CC(C)C(C(=O)*)N(C)C; NMeV = CN[CH](C(=O)O)C(C)C
Legend:
Experiment in all cases: NCI tumour cell line growth inhibition, 48 h
IGROV-1 = system: IGROV-1
LOX IMVI = system: LOX IMVI
NCI-H522 = system: NCI-H522
SK-MEL-28 = system: SK-MEL-28
DMS-273 = system: DMS-273
UACC-62 = system: UACC-62
HCC 2998 = system: HCC 2998
HCT-116 = system: HCT-116
UO-31 = system: UO-31
SF-268 = system: SF-268
NCI-H226 = system: NCI-H226
Malme-3M = system: Malme-3M
SW-620 = system: SW-620
MOLT-4 = system: MOLT-4
SNB-19 = system: SNB-19
DMS-114 = system: DMS-114
KM-20L2 = system: KM-20L2
RPMI-8226 = system: RPMI-8226
ACHN = system: ACHN
M14 = system: M14

Compound: CC1C(=O)OC2CC[N+]3(CC(=O)c4ccc(Br)cc4)CC=C(COC(=O)C(C)(O)C1(C)O)C23 (stereo unspecified)
- GI50 (IGROV-1): > 375 µM (inactive)
- GI50 (LOX IMVI): > 375 µM (inactive)
- GI50 (NCI-H522): > 375 µM (inactive)
- GI50 (SK-MEL-28): > 375 µM (inactive)
- GI50 (DMS-273): > 128 µM (inactive)
- GI50 (UACC-62): > 375 µM (inactive)
- GI50 (HCC 2998): > 375 µM (inactive)
- GI50 (HCT-116): > 375 µM (inactive)
- GI50 (UO-31): > 375 µM (inactive)
- GI50 (SF-268): > 375 µM (inactive)
- GI50 (NCI-H226): > 375 µM (inactive)
- GI50 (Malme-3M): > 375 µM (inactive)
- GI50 (SW-620): > 375 µM (inactive)
- GI50 (MOLT-4): > 375 µM (inactive)
- GI50 (SNB-19): > 375 µM (inactive)
- GI50 (DMS-114): > 375 µM (inactive)
- GI50 (KM-20L2): > 37.5 µM (inactive)
- GI50 (RPMI-8226): > 375 µM (inactive)

Compound: COC(=O)C(Cc1nc2ccc(Cl)cc2nc1O)C(=O)C(=O)Nc1ccccc1[N+](=O)[O-] (stereo unspecified)
- GI50 (IGROV-1): > 100 µM (inactive)
- GI50 (LOX IMVI): > 100 µM (inactive)
- GI50 (NCI-H522): > 100 µM (inactive)
- GI50 (SK-MEL-28): > 100 µM (inactive)
- GI50 (DMS-273): > 100 µM (inactive)
- GI50 (UACC-62): > 100 µM (inactive)
- GI50 (HCC 2998): > 100 µM (inactive)
- GI50 (HCT-116): > 100 µM (inactive)
- GI50 (UO-31): > 100 µM (inactive)
- GI50 (SF-268): > 100 µM (inactive)
- GI50 (NCI-H226): > 100 µM (inactive)
- GI50 (Malme-3M): > 100 µM (inactive)
- GI50 (ACHN): > 100 µM (inactive)
- GI50 (SW-620): > 100 µM (inactive)
- GI50 (M14): > 100 µM (inactive)
- GI50 (MOLT-4): > 100 µM (inactive)
- GI50 (SNB-19): > 100 µM (inactive)
- GI50 (DMS-114): > 100 µM (inactive)
- GI50 (KM-20L2): > 100 µM (inactive)
- GI50 (RPMI-8226): > 100 µM (inactive)

Compound: COC(=O)c1nn(C(=N)c2ccc(Cl)cc2)c2c1CCC2
- GI50 (IGROV-1): > 100 µM (inactive)
- GI50 (LOX IMVI): > 100 µM (inactive)
- GI50 (NCI-H522): > 100 µM (inactive)
- GI50 (SK-MEL-28): > 100 µM (inactive)
- GI50 (DMS-273): > 100 µM (inactive)
- GI50 (UACC-62): > 100 µM (inactive)
- GI50 (HCC 2998): > 100 µM (inactive)
- GI50 (HCT-116): > 100 µM (inactive)
- GI50 (UO-31): > 100 µM (inactive)
- GI50 (SF-268): > 100 µM (inactive)
- GI50 (NCI-H226): > 100 µM (inactive)
- GI50 (Malme-3M): > 100 µM (inactive)
- GI50 (ACHN): > 100 µM (inactive)
- GI50 (SW-620): > 100 µM (inactive)
- GI50 (M14): > 100 µM (inactive)
- GI50 (MOLT-4): > 100 µM (inactive)
- GI50 (SNB-19): > 100 µM (inactive)
- GI50 (DMS-114): > 100 µM (inactive)
- GI50 (KM-20L2): > 100 µM (inactive)
- GI50 (RPMI-8226): > 100 µM (inactive)

Compound: Nc1nc(=O)[nH][nH]1
- GI50 (IGROV-1): > 100 µM (inactive)
- GI50 (LOX IMVI): > 100 µM (inactive)
- GI50 (NCI-H522): > 100 µM (inactive)
- GI50 (SK-MEL-28): > 100 µM (inactive)
- GI50 (DMS-273): > 100 µM (inactive)
- GI50 (UACC-62): > 100 µM (inactive)
- GI50 (HCC 2998): > 100 µM (inactive)
- GI50 (HCT-116): > 100 µM (inactive)
- GI50 (UO-31): > 100 µM (inactive)
- GI50 (SF-268): > 100 µM (inactive)
- GI50 (NCI-H226): > 100 µM (inactive)
- GI50 (Malme-3M): > 100 µM (inactive)
- GI50 (SW-620): > 100 µM (inactive)
- GI50 (MOLT-4): > 100 µM (inactive)
- GI50 (SNB-19): > 100 µM (inactive)
- GI50 (DMS-114): > 100 µM (inactive)
- GI50 (KM-20L2): > 100 µM (inactive)
- GI50 (RPMI-8226): > 100 µM (inactive)

Compound: COC1=CC(=O)N(C(=O)C(OC(=O)C2CCCN2C(=O)C2CCCN2C(=O)C(C(C)C)N(C)C(=O)C(NC(=O)C(C(C)C)N(C)C)C(C)C)C(C)C)C1Cc1ccccc1 (stereo unspecified) (ξNMe2Val-V[NMeV]PP-X18; configuration not given here)
- GI50 (IGROV-1): 0.00231 µM (active)
- GI50 (LOX IMVI): 0.000849 µM (active)
- GI50 (NCI-H522): 0.000347 µM (active)
- GI50 (SK-MEL-28): 0.00309 µM (active)
- GI50 (DMS-273): 0.00103 µM (active)
- GI50 (UACC-62): 0.00189 µM (active)
- GI50 (HCC 2998): 0.00205 µM (active)
- GI50 (HCT-116): 0.000582 µM (active)
- GI50 (UO-31): 0.00938 µM (active)
- GI50 (SF-268): 0.00189 µM (active)
- GI50 (NCI-H226): 0.00773 µM (active)
- GI50 (Malme-3M): 0.0027 µM (active)
- GI50 (ACHN): 0.00931 µM (active)
- GI50 (SW-620): 0.000469 µM (active)
- GI50 (M14): 0.0027 µM (active)
- GI50 (MOLT-4): 0.00102 µM (active)
- GI50 (SNB-19): 0.00629 µM (active)
- GI50 (DMS-114): 0.000476 µM (active)
- GI50 (KM-20L2): 0.00135 µM (active)
- GI50 (RPMI-8226): 0.000524 µM (active)
